In patent US9932320B2 (BRISTOL-MYERS SQUIBB COMPANY, priority 2014, dated 2018) one finds IC50 data, which are given here for 33 compounds.

Usually IC50 stands for the concentration that gives 50% inhibition.

Structures are written as SMILES.

In one assay the target is T1, AAK1 (GST-Xa-hAAK1) (Homo sapiens, UniProt Q2M2I8).
T1 construct: made in house
T1 sequence (Q2M2I8 whole entry): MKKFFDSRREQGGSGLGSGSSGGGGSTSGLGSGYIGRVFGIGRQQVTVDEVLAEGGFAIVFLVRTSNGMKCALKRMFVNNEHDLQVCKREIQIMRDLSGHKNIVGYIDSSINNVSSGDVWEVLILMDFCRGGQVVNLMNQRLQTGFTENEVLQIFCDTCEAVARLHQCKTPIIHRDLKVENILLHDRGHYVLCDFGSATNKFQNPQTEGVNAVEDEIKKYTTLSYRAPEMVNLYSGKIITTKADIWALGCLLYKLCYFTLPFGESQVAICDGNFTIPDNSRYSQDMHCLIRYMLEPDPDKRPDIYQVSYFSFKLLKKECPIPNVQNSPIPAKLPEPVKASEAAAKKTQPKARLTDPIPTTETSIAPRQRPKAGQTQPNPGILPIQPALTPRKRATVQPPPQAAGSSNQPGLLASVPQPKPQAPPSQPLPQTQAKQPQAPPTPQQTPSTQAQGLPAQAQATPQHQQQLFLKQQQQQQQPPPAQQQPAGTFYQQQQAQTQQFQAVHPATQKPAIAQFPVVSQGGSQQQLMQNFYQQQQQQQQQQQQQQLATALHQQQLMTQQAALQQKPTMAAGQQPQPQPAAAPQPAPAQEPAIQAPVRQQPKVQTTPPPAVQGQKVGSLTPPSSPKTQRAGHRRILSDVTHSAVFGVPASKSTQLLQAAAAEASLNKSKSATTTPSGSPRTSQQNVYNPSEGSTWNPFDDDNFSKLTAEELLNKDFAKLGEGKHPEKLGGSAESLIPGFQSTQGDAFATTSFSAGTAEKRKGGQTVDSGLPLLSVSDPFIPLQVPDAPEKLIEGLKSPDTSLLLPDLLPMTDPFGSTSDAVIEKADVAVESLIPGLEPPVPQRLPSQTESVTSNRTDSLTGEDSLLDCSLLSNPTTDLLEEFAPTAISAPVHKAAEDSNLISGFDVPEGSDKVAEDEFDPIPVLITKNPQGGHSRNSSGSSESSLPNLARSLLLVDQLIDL
The experiment in a line: AAK1 Kinase Assay (Caliper LabChip, fluoresceinated peptide substrate). The assay is classed as biochemical. Particulars: AAK1 functional potency; class symbols; read-out: IC50 (nM), functional potency as IC50 ranges. On the procedure: The assays were performed in U-bottom 384-well plates. The final assay volume was 30 μl prepared from 15 μl additions of enzyme and substrates (fluoresceinated peptide (5-FAM)-Aha-KEEQSQITSQVTGQIGWR-NH2 and ATP) and test compounds in assay buffer (10 mM Tris-HCL pH 7.4, 10 mM MgCl2, 0.01% Tween-20 and 1.0 mM DTT). The reactions were initiated by the combination of bacterially expressed, GST-Xa-hAAK1 with substrates and test compounds. The reactions were incubated at room temperature for 3 hours and terminated by adding 60 μl of 35 mM EDTA buffer to each sample. The reactions were analyzed on the Caliper LabChip 3000 (Caliper, Hopkinton, Mass.) by electrophoretic separation of the fluorescent substrate and phosphorylated product. Inhibition data were calculated by comparison to EDTA quenched control reactions for 100% inhibition and vehicle-only reactions for 0% inhibition. The final concentration of reagents in the assays are ATP, 22 μM; (5-FAM)-Aha-KEEQSQITSQVTGQIGWR-NH2, 1.5 μM; GST-Xa-hAAK1, 3.5 nM; and DMSO, 1.6%. Dose response curves were generated to determine the concentration required inhibiting 50% of kinase activity (IC50). Compounds were dissolved at 10 mM in dimethylsulfoxide (DMSO) and evaluated at eleven concentrations. IC50 values were derived by non-linear regression analysis.
Take `CCc1cc(C(N)CC(C)C)nc2ccc(-c3ccncc3)cc12` (racemic) [Example 43, 1-(4-ethyl-6-(pyridin-4-yl)quinolin-2-yl)-3-methylbutan-1-amine]: the IC50 was in the range of 11 to 100 nM. As for `CC(C)C[C@H](N)c1cc(C#N)c2cc(-c3ccncc3)ccc2n1` (single isomer, unassigned) [Example 8], the IC50 is 1 to 10 nM.

`CC(=O)Nc1cc(-c2ccc3nc(C(N)CC(C)C)ccc3c2)ccn1` (single isomer, unassigned) [Example 33, N-(4-(2-(1-amino-3-methylbutyl)quinolin-6-yl)pyridin-2-yl)acetamide]: the IC50 was in the range of 1 to 10 nM. Consider `CC(=O)Nc1cc(-c2ccc3nc(C(N)CC(C)C)ccc3c2)ccn1` (single isomer, unassigned) [Example 34, N-(4-(2-(1-amino-3-methylbutyl)quinolin-6-yl)pyridin-2-yl)acetamide], for which the IC50 lay within 1 to 10 nM. On to `NC(=O)c1cc(C(N)C2CCCCC2)nc2ccc(-c3ccncc3)cc12` (single isomer, unassigned) [Example 40, 2-(amino(cyclohexyl)methyl)-6-(pyridin-4-yl)quinoline-4-carboxamide], for which the IC50 lay within 101 to 2500 nM. On the same count and under the same terms, with `CC(=O)Nc1cc(-c2ccc3nc(C(N)CC(C)C)ccc3c2)c2ccccc2n1` (single isomer, unassigned) [Example 46, N-(2′-(1-amino-3-methylbutyl)-4,6′-biquinolin-2-yl)acetamide] the figure was 101 to 2500 nM; with `CC(C)CC(N)c1ccc2cc(-c3cc(N)nc4ccccc34)ccc2n1` (single isomer, unassigned) [Example 48, 2′-(1-amino-3-methylbutyl)-4,6′-biquinolin-2-amine], 101 to 2500 nM; with `CC(C)CC(N)c1ccc2cc(-c3cc(N)nc4ccccc34)ccc2n1` (single isomer, unassigned) [Example 49, 2′-(1-amino-3-methylbutyl)-4,6′-biquinolin-2-amine], 101 to 2500 nM.

`CC(C)CC(N)c1ccc2cc(-c3ccncc3)ccc2n1` (single isomer, unassigned; (+)) [Example 21, (+)-3-methyl-1-(6-(pyridin-4-yl)quinolin-2-yl)butan-1-amine]: the IC50 is 11 to 100 nM. As for `COc1cnccc1-c1ccc2nc(C(N)CC(C)C)ccc2c1` (single isomer, unassigned; (+)) [Example 22, (+)-1-(6-(3-methoxypyridin-4-yl)quinolin-2-yl)-3-methylbutan-1-amine], the IC50 fell in the range of 101 to 2500 nM. Take `COc1cc2nc(C(N)CC(C)C)cc(C#N)c2cc1-c1cnco1` (single isomer, unassigned; (-)) [Example 12, (−)-2-(1-Amino-3-methylbutyl)-7-methoxy-6-(oxazol-5-yl)quinoline-4-carbonitrile]: the IC50 fell in the range of 11 to 100 nM.

Take `CC(C)CC(N)c1ccc2cc(-c3ccncc3)ccc2n1` (single isomer, unassigned; (-)) [Example 20, (−)-3-methyl-1-(6-(pyridin-4-yl)quinolin-2-yl)butan-1-amine]: the IC50 was in the range of 11 to 100 nM.

With `COc1cnccc1-c1ccc2nc(C(N)CC(C)C)ccc2c1` (single isomer, unassigned; (-)) [Example 23, (−)-1-(6-(3-methoxypyridin-4-yl)quinolin-2-yl)-3-methylbutan-1-amine], the IC50 was 101 to 2500 nM. Regarding `CC(C)CCc1cc(O)c2cc(-c3ccncc3)ccc2n1` [Example 1, 2-Isopentyl-6-(pyridin-4-yl)quinolin-4-ol], the IC50 was in the range of 11 to 100 nM.

For the compound `COc1cc(CCC(C)C)nc2ccc(-c3ccncc3)cc12` [Example 2, 2-Isopentyl-4-methoxy-6-(pyridin-4-yl)quinoline], the IC50 is 101 to 2500 nM. With `CC(C)CCc1cc(Br)c2cc(-c3ccncc3)ccc2n1` [Example 3, 4-Bromo-2-isopentyl-6-(pyridin-4-yl)quinoline], the IC50 lay in the range of 11 to 100 nM. Take `CC(C)CCc1ccc2cc(-c3ccncc3)ccc2n1` [Example 4, 2-Isopentyl-6-(pyridin-4-yl)quinoline]: the IC50 is 101 to 2500 nM.

With `CC(C)CCc1cc(N(C)C)c2cc(-c3ccncc3)ccc2n1` [Example 5, 2-Isopentyl-N,N-dimethyl-6-(pyridin-4-yl)quinolin-4-amine], the IC50 lay in the range of 11 to 100 nM. As to `CC(C)CCc1cc(C#N)c2cc(-c3ccncc3)ccc2n1` [Example 6, 2-Isopentyl-6-(pyridin-4-yl)quinoline-4-carbonitrile], the IC50 lay in the range of 11 to 100 nM. In the case of `COc1cc2nc(CCC(C)C)cc(O)c2cc1-c1cnco1` [Example 9, 2-Isopentyl-7-methoxy-6-(oxazol-5-yl)quinolin-4-ol], the IC50 was in the range of 11 to 100 nM. `COc1cc2nc(CCC(C)C)cc(Br)c2cc1-c1cnco1` [Example 10, 5-(4-Bromo-2-isopentyl-7-methoxyquinolin-6-yl)oxazole]: the IC50 fell in the range of 11 to 100 nM. The same measure, in the same setting: in the case of `COc1cc2nc(CCC(C)C)cc(C#N)c2cc1-c1cnco1` [Example 11, 2-Isopentyl-7-methoxy-6-(oxazol-5-yl)quinoline-4-carbonitrile] it was 11 to 100 nM; in that of `Cc1nc2ccc(-c3ccncc3)cc2c(O)c1CC(C)C` [Example 14, 3-Isobutyl-2-methyl-6-(pyridin-4-yl)quinolin-4-ol], 101 to 2500 nM; in that of `CC(C)Cc1cnc2ccc(-c3ccncc3)cc2c1O` [Example 15, 3-Isobutyl-6-(pyridin-4-yl)quinolin-4-ol], 101 to 2500 nM. As for `CC(C)CCc1nc2ccc(-c3ccncc3)cc2c(O)c1Br` [Example 16, 3-Bromo-2-isopentyl-6-(pyridin-4-yl)quinolin-4-ol], the IC50 was in the range of 11 to 100 nM.

As for `CC(C)CCc1nc2ccc(-c3ccncc3)cc2cc1C(N)=O` [Example 17, 2-Isopentyl-6-(pyridin-4-yl)quinoline-3-carboxamide], the IC50 is 101 to 2500 nM. `CC(C)CCc1nc2ccc(-c3ccncc3)cc2cc1C#N` [Example 18, 2-Isopentyl-6-(pyridin-4-yl)quinoline-3-carbonitrile]: the IC50 lay within 101 to 2500 nM.

On to `CC(C)CC(=O)c1ccc2cc(-c3ccncc3)ccc2n1` [Example 19, 3-methyl-1-(6-(pyridin-4-yl)quinolin-2-yl)butan-1-one], for which the IC50 was 101 to 2500 nM. Turning to `COc1cc(-c2ccc3nc(C(N)CC(C)C)ccc3c2)ccn1` (stereo not drawn) [Example 24], the 50% inhibitory concentration (IC50) lay within 101 to 2500 nM.

The same assay, now with this note: AAK1 functional potency; numeric values; read-out: IC50 (nM), functional potency.
As for `CC(C)C[C@@H](N)c1cc(C#N)c2cc(-c3ccncc3)ccc2n1` (single isomer, unassigned) [Example 7], the IC50 turned out to be 12 nM. Still for that read-out and setting: with `NC(=O)c1cc(C(N)C2CCCCC2)nc2ccc(-c3ccncc3)cc12` (single isomer, unassigned) [Example 39, 2-(amino(cyclohexyl)methyl)-6-(pyridin-4-yl)quinoline-4-carboxamide] the figure was 54 nM; with `CC(=O)Nc1cc(-c2ccc3nc(C(N)CC(C)C)ccc3c2)c2ccccc2n1` (single isomer, unassigned) [Example 47, N-(2′-(1-amino-3-methylbutyl)-4,6′-biquinolin-2-yl)acetamide], 1200 nM. Same read-out and setting: in the case of `COc1cc2nc(C(N)CC(C)C)cc(C#N)c2cc1-c1cnco1` (single isomer, unassigned; (+)) [Example 13, (+)-2-(1-Amino-3-methylbutyl)-7-methoxy-6-(oxazol-5-yl)quinoline-4-carbonitrile] it was 4.1 nM.
